The results in this text go back to ChEMBL document CHEMBL1131315, “Synthesis and anticonvulsant activity of 2(3H)-benzoxazolone and 2(3H)-benzothiazolone derivatives” (J Med Chem, 1998).

For orientation: TD50 means the dose at which the toxic effect under study appears in half of the subjects. Low values mean harm at a small dose, high ones harm only at a large dose. The term ED50 denotes the dose that gives a 50% effect, or the effect in half of the subjects. By Ki is commonly meant the dissociation constant of the complex between target and ligand, obtained from inhibition or displacement. A low value points to a stronger hold on the target.

Activity calls are given as the source filed them. The calls are words filed in the database; no cut-off is given here.

The test system of series [1] is Rattus norvegicus. Put plainly: The compound was tested for the toxic dose on oral administration. The series is classed as functional.
Series [2] deals with Mus musculus. The series can be described thus: The compound was tested to inhibit 50% of induced subcutaneous pentylenetetrazole seizure in mice on ip administration. The series is classed as functional.
For series [3], the target named is Sigma non-opioid intracellular receptor 1 (Homo sapiens) (UniProt Q99720). The series can be described thus: Ratio between the Ki(nM)values of sigma-2 and sigma-1. The series is classed as functional.
The next series addresses Sigma 2 receptor. The series can be described thus: Affinity on sigma 2 receptor using [3H]- DTG as radioligand.
Series [4] has as its system Mus musculus. The series can be described thus: The compound was tested to inhibit 50% of induced maximal electroshock seizure in mice on ip administration. The format is functional. (The maximal electroshock test induces tonic seizures with an electrical stimulus.)
Series [5] relates to Mus musculus. Put plainly: The compound was tested for anticonvulsant activity in Maximal electroshock seizure test for 30 min in mice(ip); active at 30 mg/kg. The series is classed as functional, organism-based. On the set-up: dose 30 mg/kg.
Series [6] deals with Rattus norvegicus. Put plainly: The compound was tested peroral dose of 30 mg/kg for 0.5 hours for rotarod toxicity; 0/4. The series is classed as functional. The note with it: route oral. In general terms: Falling from the rotarod earlier than controls is read as motor impairment.
For series [7], the system named is Rattus norvegicus. Put plainly: The compound was tested peroral dose of 30 mg/kg for 2 hours for rotarod toxicity; 0/4. The series is classed as functional. The settings on record: route oral.
Series [8] relates to Rattus norvegicus. The series can be described thus: The compound was tested peroral dose of 30 mg/kg for 0.25 hours for rotarod toxicity; 0/4. The format is functional. The settings on record: route oral.
Series [9] concerns Mus musculus. The series can be described thus: Time of peak effect in mice following i.p. administration. The series is classed as functional.
Series [10] relates to Mus musculus. Put plainly: The anticonvulsant activity in subcutaneous pentylenetetrazole seizure test (sc Met) for 4 hr in mice; no activity or no toxicity at 300 mg/kg. Also on record: dose 300 mg/kg. The format is functional, organism-based.
Series [11] deals with Mus musculus. Put plainly: Inhibition of s.c. pentylenetetrazole induced seizure in mice following i.p. administration. The series is classed as functional.
The subject of series [12] is Mus musculus. Put plainly: The compound was tested for anticonvulsant activity in Maximal electroshock seizure test (MES) for 4 hr in mice(ip); no activity or toxicity at 300 mg/kg. The series is classed as functional, organism-based. On the set-up: dose 300 mg/kg.
The test system of series [13] is Mus musculus. Put plainly: Anticonvulsant activity in subcutaneous pentylenetetrazole seizure test for 30 min in mice; No activity/toxicity at 300 mg/kg. The format is functional, organism-based. Also on record: dose 300 mg/kg.
Series [14] deals with Rattus norvegicus. Put plainly: The compound was tested peroral dose of 30 mg/kg for 4 hours for maximal electroshock test on rats; MES= 1/4. The settings on record: route oral. The series is classed as functional.
In series [15] the test system is Mus musculus. The series can be described thus: The compound was determined for the dose (mg/kg) by rotarod test at the time of peak neurotoxic effect in mice on ip administration. The format is functional.
In series [16] the test system is Rattus norvegicus. Put plainly: The compound was tested peroral dose of 30 mg/kg for 0.25 hours for maximal electroshock test on rats; MES= 3/4. The series is classed as functional. The settings on record: route oral.
The nature of series [17]: The compound was tested for neurologic toxicity (rotarod) test for 30 min in mice; active at 300 mg/kg. The format is organism-based. On the set-up: dose 300 mg/kg. The settings on record: mouse, in vivo, 0.5 h.
The species named for series [18] is Rattus norvegicus. Put plainly: Protective index value is the ratio between ED50 and TD50. The format is functional.
Series [19] concerns Rattus norvegicus. Put plainly: The compound was tested for the effective oral dose to inhibit 50% of the anticonvulsant in rats.(Value in parenthesis indicate 95% confidence limits). The format is functional.
The test system of series [20] is Rattus norvegicus. The series can be described thus: The compound was tested peroral dose of 30 mg/kg for 1 hour for rotarod toxicity; 0/4. The series is classed as functional. The settings on record: route oral.
The subject of series [21] is Rattus norvegicus. The series can be described thus: The compound was tested peroral dose of 30 mg/kg for 2 hours for maximal electroshock test on rats; MES= 0/4. The note with it: route oral. The series is classed as functional.
The subject of series [22] is Rattus norvegicus. The series can be described thus: The compound was tested peroral dose of 30 mg/kg for 1 hour for maximal electroshock test on rats; MES= 1/4. The series is classed as functional. The settings on record: route oral.
Series [23] deals with Rattus norvegicus. The series can be described thus: The compound was tested for the toxic dose on oral administration. The series is classed as functional.
Series [24] can be described thus: The compound was tested for neurologic toxicity (rotarod) test for 4 hours in mice; no activity or no toxicity at 300 mg/kg. The series is classed as organism-based. Also on record: dose 300 mg/kg. The settings on record: mouse, in vivo.
The test system of series [25] is Rattus norvegicus. The series can be described thus: The compound was tested peroral dose of 30 mg/kg for 0.5 hours for maximal electroshock test on rats; MES= 3/4. The format is functional. The note with it: route oral.
Series [26] in a line: The compound was tested for time of peak effect (TPE) in hours for its toxicity in mice on ip administration. The settings on record: mouse, in vivo. The series is classed as organism-based.
For series [27], the system named is Rattus norvegicus. The series can be described thus: The compound was tested peroral dose of 30 mg/kg for 4 hours for rotarod toxicity; 0/4. The format is functional. The settings on record: route oral.

Sigma non-opioid intracellular receptor 1 (Homo sapiens), sequence (Q99720 whole entry): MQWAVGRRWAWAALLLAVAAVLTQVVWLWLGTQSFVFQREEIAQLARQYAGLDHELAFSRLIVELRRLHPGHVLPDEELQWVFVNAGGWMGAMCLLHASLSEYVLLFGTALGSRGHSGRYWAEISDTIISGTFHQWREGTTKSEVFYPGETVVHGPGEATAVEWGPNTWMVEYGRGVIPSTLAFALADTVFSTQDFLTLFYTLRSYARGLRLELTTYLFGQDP

With `O=C1NC(=O)C(c2ccccc2)(c2ccccc2)N1` [PHENYTOIN], the TD50 in the series with Rattus norvegicus [1] is above 3000 mg/kg. Besides, the ED50 in the series on Mus musculus [2] was above 300 mg/kg.
As to `CCCc1ccc2c(c1)sc(=O)n2CCN1CCCCC1`, the Ratio in series [3] is 29. At Sigma 2 receptor, the Ki worked out at 18.1 nM. The figures for the median effective dose (ED50) in the series with Mus musculus [4], with Mus musculus [11] and in the series on Rattus norvegicus [19] were 7.6 mg/kg, above 75 mg/kg and 18.6 mg/kg, respectively. For the same molecule, the MES entry in the series on Mus musculus [5] and with Mus musculus [12] was “active at 30 mg/kg” each time. Further, the “No. of animals exhibiting toxicity / Number of animals tested” value with Rattus norvegicus [6], with Rattus norvegicus [7], in the series with Rattus norvegicus [8], in the series with Rattus norvegicus [20] and in the series with Rattus norvegicus [27] was 0 throughout. The molecule further came in with an Activity in the series with Mus musculus [9] of 0.25 h. Also, the scMet result in the series on Mus musculus [10] and in the series on Mus musculus [13] was “No activity or no toxicity at 300 mg/kg” in each case. In addition, the Protected/Tested was 1 in the series on Rattus norvegicus [14]; 3 in the series on Rattus norvegicus [16]; 0 with Rattus norvegicus [21]; 1 in the series with Rattus norvegicus [22]; 3 in the series with Rattus norvegicus [25]. Further, the TD50 in the series with Mus musculus [15] was 29.4 mg/kg; with Rattus norvegicus [23], below 500 mg/kg. For the same molecule, the Rotarod toxicity result in series [17] and in series [24] was “active at 300 mg/kg” in each case. The PI in the series listed under Rattus norvegicus [18] amounted to 26.9. The molecule further yielded a Toxicity in series [26] of 0.25 h.
